{
  "source": "patent US10851071B2",
  "about": "“M-dihydroxybenzene derivative crystal and salt, and manufacturing method thereof” (Chia Tai Tianqing Pharmaceutical Group Co., Ltd., priority 2016, dated 2020)",
  "key": {"[1]": {"assay": "Dynamic vapour sorption (DVS), wet weight gain", "format": "physicochemical", "details": "25±1° C. and 80±2% RH"}, "[2]": {"assay": "Crystal stability under humidity, heat and grinding", "format": "physicochemical", "details": "RT/92.5% RH 5 and 10 days; 60° C. 5 and 10 days; grinded 10/20/30 min"}, "[3]": {"assay": "Rough solubility test of A-type crystal and salts of the compound of formula (I)", "details": "for solubility: thermodynamic from solid; for Approximate solubility: room temperature", "protocol": "Hydrochloric acid, acetic acid, sodium acetate, sodium chloride, 5% glucose solution, water (buffer is a buffer solution of acetic acid/sodium acetate).\n2 mg of a sample was weighed, and dissolved by adding a solvent (10 μL) thereto at room temperature. […] The total amount of the added solvents was up to 2 mL."}, "[4]": {"assay": "Tissue distribution in SD rats after tail vein injection (LC/MS/MS)", "format": "in vivo", "procedure": "SD rats were used as test animals, and the drug concentrations in plasma, lung and breast tissues of rats at different times after administrating the compound of formula (I) via the injection in tail vein were measured by using LC/MS/MS method. The tissue distribution of the compound of the present invention in rats was investigated, and pharmacokinetic characteristics thereof were evaluated.\nAppropriate amounts of samples were weighed, and Luminespib, Ganetespib and the compound of formula (I) of the present invention were respectively formulated into a clear solution with a concentration of 2.5 mg/mL for intravenous injection, wherein the solvent was consisted of 10% (v/v) of DMSO, 14% (v/v) of polyoxyethylene hydrogenated castor oil 40, and 76% (v/v) of 5% aqueous glucose solution.\n9 SD male rats were divided into three groups, three rats per group. The rats were administered intravenously through tail vein at a dose of 1 mg/kg after being normally fed.\nSamples of blood, lung and breast tissues were collected from the rats in three groups at 0.5, 6, and 24 hours after administration, respectively. The blood sample was separated by centrifugation at 4° C., 3000 rpm/min for 15 min within half an hour after collection, so as to obtain plasma sample. The resulting plasma sample was deposited in polypropylene tubes and stored at −80° C. for LC/MS/MS analysis. After blood sample was collected, the animals were sacrificed with CO2, and the tissue samples were collected. Each tissue sample was washed twice with cold deionized water and adhered onto filter paper. Each tissue sample was then homogenized several times in MeOH/15 mM PBS (1:2) (5 mL MeOH/15 mM PBS (1:2) per gram of tissue, with dilution coefficient of 6), to ensure the formation of homogeneous phase. The whole process was carried out at a freezing point temperature. The homogenized samples were quickly frozen by using dry ice and stored at −80° C. for bioassay.\nThe contents of the test compounds in the plasma, lung and breast tissues of the rats after the administration by injection were measured with LC/MS/MS method."}, "[5]": {"tested_on": "BT-474 tumor cells", "assay": "In vivo pharmacodynamic evaluation in BT-474 breast cancer transplanted tumors in nude mice", "procedure": "BT-474 tumor cells were subcutaneously inoculated into the right axillary fossa of nude mice at 5×10^6/mouse to form transplanted tumors. When the volume thereof reached 100-200 mm^3, the animals were randomly grouped based on tumor volumes: 6 mice in negative control group; 6 mice in positive control group; and 6 mice in each test group. The mice in the treatment groups were intravenously injected with different concentrations of positive drug Ganetespib (20 mg/kg) and the compound of formula (I) (10 mg/kg and 20 mg/kg) three times a week, and the mice in the negative control group were administrated with equal amount of vehicles at the same time. The length (A) and width (B) of the tumor were measured twice a week by using a vernier caliper, and the tumor volume V=A×B^2/2 was thereby calculated. The calculation of relative tumor volume (RTV) follows: RTV=Vt/V0, wherein Vt was the tumor volume at the end of administration, and V0 was the tumor volume measured before administration to each cage. The pharmacodynamic evaluation index of antitumor activity was the relative tumor proliferation rate T/C (%), and the calculation formula was: TIC (%)=TRTV/CRTV×100%, wherein TRTV: RTV of the treatment group; CRTV: RTV of the negative control group. Therapeutic efficacy evaluation criteria: T/C %>60% was ineffective; T/C %≤60% with P<0.05 after being statistically processed was effective. […]"}, "[6]": {"details": "0.9% NaCl solution, saline or isotonic"}, "[7]": {"details": "5% glucose solution, saline or isotonic"}, "[8]": {"details": "acetic acid/sodium acetate buffer pH 3.5, pH 3.5, aqueous buffer"}, "[9]": {"details": "acetic acid/sodium acetate buffer pH 4.5, pH 4.5, aqueous buffer"}, "[10]": {"details": "acetic acid/sodium acetate buffer pH 5.5, pH 5.5, aqueous buffer"}, "[11]": {"details": "acetic acid/sodium acetate buffer pH 6.8, pH 6.8, aqueous buffer"}, "[12]": {"details": "acetic acid/sodium acetate buffer pH 7.5, pH 7.5, aqueous buffer"}, "[13]": {"details": "rats, injection dose of 1 mg/kg, same dose"}},
  "data": [
    {"compound": "CCNC(=O)c1onc(-c2cc(C(C)C)c(O)cc2O)c1-c1ccc2c(c1)CCNC2", "note": "[A-type crystal]", "values": [
      {"measurement": "wet weight gain ΔW %", "setting": "[1]", "value": "about 0.45%"},
      {"measurement": "crystal transformation", "setting": "[2]", "value": "no crystal transformation"},
      {"measurement": "solubility", "setting": "[3]; 0.01N HCl, simulated gastric fluid", "value": "800 to 1000", "unit": "µg/mL"},
      {"measurement": "solubility", "setting": "[3]; 0.1N HCl, simulated gastric fluid", "value": "< 1000", "unit": "µg/mL"},
      {"measurement": "solubility", "setting": "[3]; [6]", "value": "< 1000", "unit": "µg/mL"},
      {"measurement": "solubility", "setting": "[3]; [7]", "value": "< 1000", "unit": "µg/mL"},
      {"measurement": "solubility", "setting": "[3]; [8]", "value": "80000 to 100000", "unit": "µg/mL"},
      {"measurement": "solubility", "setting": "[3]; [9]", "value": "30000 to 50000", "unit": "µg/mL"},
      {"measurement": "solubility", "setting": "[3]; [10]", "value": "< 1000", "unit": "µg/mL"},
      {"measurement": "solubility", "setting": "[3]; acetic acid/sodium acetate buffer pH 6.5, pH 6.5, aqueous buffer", "value": "< 1000", "unit": "µg/mL"},
      {"measurement": "solubility", "setting": "[3]; [11]", "value": "< 1000", "unit": "µg/mL"},
      {"measurement": "solubility", "setting": "[3]; [12]", "value": "< 1000", "unit": "µg/mL"},
      {"measurement": "solubility", "setting": "[3]; water", "value": "< 1000", "unit": "µg/mL"}
    ]},
    {"compound": "CCNC(=O)c1onc(-c2cc(C(C)C)c(O)cc2O)c1-c1ccc2c(c1)CCNC2", "note": "[Compound of formula (I), 3(2,4dihydroxy-5-isopropylphenyl)-N-ethyl-4(1,2,3,4-tetrahydroisoquinolin-6-yl)isoxazole-5-carboxamide]", "values": [
      {"measurement": "Breast tissue exposure", "setting": "[4]; SD rats, 1 mg/kg iv", "value": 7.226, "unit": "µM·h"},
      {"measurement": "Lung exposure", "setting": "[4]; SD rats, 1 mg/kg iv", "value": 30.933, "unit": "µM·h"},
      {"measurement": "Plasma exposure", "setting": "[4]; SD rats, 1 mg/kg iv", "value": 0.415, "unit": "µM·h"},
      {"measurement": "concentrations in lung and breast tissues compared with Luminespib and Ganetespib (in words)", "setting": "[4]; [13]", "value": "significantly higher"},
      {"measurement": "tissue exposures compared with Luminespib and Ganetespib (in words)", "setting": "[4]; [13]", "value": "significantly greater"},
      {"measurement": "TGI (%)", "setting": "[5]; 10 mpk iv three times a week, day 35 (administration stopped day 18)", "value": 120, "unit": "%"},
      {"measurement": "antitumor effect compared with Ganetespib (in words)", "setting": "[5]; 10 mpk versus 20 mpk of Ganetespib, BT-474 transplanted mouse model", "value": "significantly superior antitumor effect"},
      {"measurement": "solubility depending on buffer pH (in words)", "setting": "[3]; conclusion from Table 5", "value": "higher solubility in the buffer of pH 3.5-4.5"}
    ]},
    {"compound": "CCNC(=O)c1noc(-c2cc(C(C)C)c(O)cc2O)c1-c1ccc(CN2CCOCC2)cc1", "note": "[Luminespib, 5[2,4dihydroxy-5-isopropylphenyl]-N-ethyl-4[4-(4-morpholinylmethyl)phenyl]-3-isoxazolecarboxamide, reference compound]", "values": [
      {"measurement": "Lung exposure", "setting": "[4]; SD rats, 1 mg/kg iv", "value": 5.284, "unit": "µM·h"}
    ]},
    {"compound": "CCNC(=O)c1onc(-c2cc(C(C)C)c(O)cc2O)c1-c1ccc2c(c1)CCNC2.Cl", "note": "[hydrochloride, 3-(2,4-dihydroxy-5-isopropylphenyl)-N-ethyl-4-(1,2,3,4tetrahydroisoquinolin-6-yl)isoxazole-5-carboxamide hydrochloride]", "values": [
      {"measurement": "solubility", "setting": "[3]; [6]", "value": "< 2000", "unit": "µg/mL"},
      {"measurement": "solubility", "setting": "[3]; [7]", "value": "4600 to 5500", "unit": "µg/mL"},
      {"measurement": "solubility", "setting": "[3]; [8]", "value": "9500 to 14200", "unit": "µg/mL"},
      {"measurement": "solubility", "setting": "[3]; [9]", "value": "5800 to 7300", "unit": "µg/mL"},
      {"measurement": "solubility", "setting": "[3]; [10]", "value": "< 2000", "unit": "µg/mL"},
      {"measurement": "solubility", "setting": "[3]; [11]", "value": "< 2000", "unit": "µg/mL"},
      {"measurement": "solubility", "setting": "[3]; [12]", "value": "< 2000", "unit": "µg/mL"},
      {"measurement": "solubility compared with A-type crystal (in words)", "setting": "[3]; conclusion from Table 5", "value": "significantly higher solubilities than that of the A-type crystal"},
      {"measurement": "solubility", "setting": "[3]; water", "value": "5300 to 6300", "unit": "µg/mL"}
    ]},
    {"compound": "O=S(=O)(O)O", "note": "[sulfate]", "values": [
      {"measurement": "wet weight gain ΔW %", "setting": "[1]", "value": "about 0.081%"}
    ]},
    {"compound": "maleate", "values": [
      {"measurement": "wet weight gain ΔW %", "setting": "[1]", "value": "about 0.379%"},
      {"measurement": "Approximate solubility", "setting": "[3]; 0.9% NaCl solution", "value": "<2000", "unit": "µg/mL"},
      {"measurement": "Approximate solubility", "setting": "[3]; 5% glucose solution", "value": "2100 to 2300", "unit": "µg/mL"},
      {"measurement": "Approximate solubility", "setting": "[3]; pH 3.5 buffer (acetic acid/sodium acetate)", "value": "6500 to 7500", "unit": "µg/mL"},
      {"measurement": "Approximate solubility", "setting": "[3]; pH 4.5 buffer", "value": "3400 to 3900", "unit": "µg/mL"},
      {"measurement": "Approximate solubility", "setting": "[3]; pH 5.5 buffer", "value": "<2000", "unit": "µg/mL"},
      {"measurement": "Approximate solubility", "setting": "[3]; pH 6.8 buffer", "value": "<2000", "unit": "µg/mL"},
      {"measurement": "Approximate solubility", "setting": "[3]; pH 7.5 buffer", "value": "<2000", "unit": "µg/mL"},
      {"measurement": "Approximate solubility", "setting": "[3]; water", "value": "2200 to 2600", "unit": "µg/mL"}
    ]}
  ]
}
